Assay results from patent publication US20200010482A1, “INHIBITORS OF BETA SECRETASE” (Janssen Pharmaceutica NV, priority 2017, published 2020).

How the values were obtained:
β-secretase II (BACE2) = molecular target: T1, β-secretase II (BACE2) (Homo sapiens, UniProt Q9Y5Z0); experiment: Biochemical assay, automated (CyclOps), BACE2; conditions: automated CyclOps bioassay
T1 sequence (Q9Y5Z0 63-518): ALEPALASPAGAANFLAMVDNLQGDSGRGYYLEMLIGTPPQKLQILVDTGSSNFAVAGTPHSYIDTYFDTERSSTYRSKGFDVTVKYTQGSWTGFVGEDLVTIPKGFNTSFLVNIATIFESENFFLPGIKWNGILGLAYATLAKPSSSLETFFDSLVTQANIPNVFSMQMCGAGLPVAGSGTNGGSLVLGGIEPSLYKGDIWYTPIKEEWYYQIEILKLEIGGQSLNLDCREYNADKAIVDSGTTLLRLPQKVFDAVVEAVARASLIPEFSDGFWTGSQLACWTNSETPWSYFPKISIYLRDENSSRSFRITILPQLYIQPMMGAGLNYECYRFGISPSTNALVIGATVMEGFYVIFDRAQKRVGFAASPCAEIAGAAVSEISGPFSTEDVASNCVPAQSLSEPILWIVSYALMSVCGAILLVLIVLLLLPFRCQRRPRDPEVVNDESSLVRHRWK
Protocol: (§1) Unless otherwise indicated all biochemicals were purchased from Sigma-Aldrich Chemical Company, Poole, Dorset, U.K. and non-aqueous solvents, of analytical or higher grade, were purchased from ThermoFisher Scientific, Loughborough, U.K. MilliQ water (Elix 5 & MilliQ Gradient; Merck Millipore) was used as the base aqueous solvent to make up the biological buffers. Base assay buffer was prepared by adding a 50 mM solution of citric acid (1.00244; Merck Biosciences) to stirring solution of 50 mM trisodium citrate (1.06448; Merck Biosciences) until a final pH of 5.0 was achieved. […] All assays were routinely carried out in 384-well assay plates (Costar 4514; Corning Life Sciences) and incubated at 37±1° C. for 60 min. prior to reading the endpoint fluorescence intensity. The (7-methoxyl coumarin-4-yl)acetic acid based substrate β-secretase substrate VI (M2465; Bachem) was prepared as a 1 mM stock in 100% DMSO (D/4121/PB08; ThermoFisher). Assay buffer was prepared by adding DMSO to base buffer to a final concentration of 1% (vol./vol.). β-secretase I (18.64 μM; “BACE1”) and β-secretase II (4.65 μM; “BACE2”) were obtained from Janssen Pharmaceutica, Beerse, Belgium and were stored as frozen aliquots (˜20 μl) and thawed as required.
(§2) Typically 12.5 μl of assay buffer was dispensed to rows B to P of the assay plate. To row A was added 18.75 μl of test compound diluted appropriately in assay buffer. A 6.25 μl aliquot of sample was transferred from row A to row B and the sample mixed three times by pipette. The process was repeated down the plate and 6.25 μl of solution discarded at row N post-mix. Rows O and P were designated as the positive and negative controls. To row P was added 6.25 μl base buffer. To rows A to O was added 6.25 μl enzyme (freshly prepared 40 nM BACE1 or 40 nM BACE2) diluted in base buffer. To initiate the assay 6.25 μl of freshly prepared 80 μM substrate, made up by diluting the 1 mM in 100% DMSO solution into HPLC grade water (Optima W6-212; ThermoFisher), was added to all the wells. The assay plate was covered and incubated at 37±1° C. for 60 min. The fluorescence intensity of the wells was read at 360/405 nm (excitation/emission) utilising a nine reads per well protocol (50 ms integration; density of 3, 0.25 mm spacing; SpectraMAX Paradigm plate reader; TUNE cartridge; SoftMax Pro v 6.3 software; Molecular Devices UK Ltd., Wokingham, Berkshire, UK) and outputting the median value of the nine reads as a text file. Data analysis was carried out using Prism software v 6.3 (GraphPad Inc., San Diego, Calif., USA) using the non-linear regression analysis models supplied by the vendor. For IC50 determinations the four parameter logistic variable slope model was used to fit the raw fluorescence intensity data with the ‘bottom’ fixed to the negative control.
(§3) The CyclOps bioassay module consisted of a fraction collection station, a reagent station, liquid handling robotics, plate store and an integrated plate reader (SpectraMAX Paradigm, TUNE cartridge, SoftMax Pro v 6.3; Molecular Devices). The fraction collection station composed of a 384 well collection plate (P-384-240SQ-C; Axygen, Union City, Calif., USA) mounted on a H-portal carriage (Festo AG & Co. KG, Esslingen, Germany), a syringe drive and a two-way six port injection valve fitted with a 200 μl loop (VICI AG International, Schenkon Switzerland). The output of the injection valve was addressable to all the positions of a 384 well collection plate. The reagent station consisted of hydraulically cooled (10-12° C.) aluminium segments; each manufactured to house a SBS microtiter plate footprint. Independent addressable reagent stations were housed within these sections. Where required, custom aluminium housings were used to accommodate standard laboratory plastic ware (e.g. Eppendorf tubes, Falcon tubes, etc.). As and when required the reagent reservoirs were covered and the lids contained holes through which the Teflon-coated probe could access solutions. […]

β-secretase I (BACE1) = β-secretase I (BACE1) (Homo sapiens, UniProt P56817); experiment: Biochemical assay, automated (CyclOps), BACE1; conditions: automated CyclOps bioassay
Protocol: as §1, §2, §3

Sequence of β-secretase I (BACE1) (P56817 46-501): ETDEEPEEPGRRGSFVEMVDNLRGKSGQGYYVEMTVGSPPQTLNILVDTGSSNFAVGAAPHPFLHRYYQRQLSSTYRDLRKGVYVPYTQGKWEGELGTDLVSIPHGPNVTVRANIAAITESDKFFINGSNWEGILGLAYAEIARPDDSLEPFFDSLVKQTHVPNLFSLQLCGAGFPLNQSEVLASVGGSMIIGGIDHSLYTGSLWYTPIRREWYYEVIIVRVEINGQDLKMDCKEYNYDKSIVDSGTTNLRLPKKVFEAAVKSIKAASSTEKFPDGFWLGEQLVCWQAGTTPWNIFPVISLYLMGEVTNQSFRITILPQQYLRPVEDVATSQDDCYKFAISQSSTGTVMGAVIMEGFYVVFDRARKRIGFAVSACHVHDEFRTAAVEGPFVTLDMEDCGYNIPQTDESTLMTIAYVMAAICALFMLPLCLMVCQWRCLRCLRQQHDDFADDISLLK

AUTOMATED ASSAY BACE2 pIC50 (β-secretase II (BACE2)) | AUTOMATED ASSAY BACE1 pIC50 (β-secretase I (BACE1)) | IC50 (β-secretase II (BACE2); read-out: AUTOMATED ASSAY BACE2 pIC50 (converted)) [nM] | IC50 (β-secretase I (BACE1); read-out: AUTOMATED ASSAY BACE1 pIC50 (converted)) [nM] | Structure (SMILES)
5.6 | 6.77 |  |  | COc1ncc(-c2cccc3cnn(C)c23)c2c1C[C@]1(c3ccc(F)cc3F)N=C(N)SC[C@@H]1C2 [Compound 127]
7.63 | 8.11 |  |  | COc1ncc(-c2cccc(C)c2C)c2c1C[C@]1(c3ccc(F)cc3F)N=C(N)SC[C@@H]1C2 [Compound 56]
5.65 | 7.52 |  |  | COc1cc(C)c(-c2cnc(OC)c3c2C[C@H]2CSC(N)=N[C@@]2(c2cc(OCC4CCOCC4)ccc2F)C3)cn1 [Compound 152]
6.83 | 7.34 |  |  | COc1ncc(-c2cc(C(F)(F)F)ccc2F)c2c1C[C@]1(c3ccc(F)cc3F)N=C(N)SC[C@@H]1C2 [Compound 51]
6.64 | 6.73 |  |  | COc1ncc(-c2c(C)noc2C)c2c1C[C@]1(c3cc(OCc4c(C)noc4C)ccc3F)N=C(N)SC[C@@H]1C2 [Compound 153]
8.42 | 8.54 |  |  | COc1ncc(-c2cc(F)cc(F)c2)c2c1C[C@]1(c3ccc(F)cc3F)N=C(N)SC[C@@H]1C2 [Compound 54]
7.16 | 7.82 |  |  | COc1ncc(-c2cccc3cnccc23)c2c1C[C@]1(c3ccc(F)cc3F)N=C(N)SC[C@@H]1C2 [Compound 132]
6.63 | 6.74 |  |  | COc1ncc(-c2c(C)noc2C)c2c1C[C@]1(c3cc(OC4CCOCC4)ccc3F)N=C(N)SC[C@@H]1C2 [Compound 146]
7.88 | 7.51 |  |  | COc1ncc(-c2ccccc2)c2c1C[C@]1(c3cc(OCc4ccc(F)cc4)ccc3F)N=C(N)SC[C@@H]1C2 [Compound 154]
4.97 | 5.55 |  |  | COc1ccc(OC)c(-c2cnc(OC)c3c2C[C@H]2CSC(N)=N[C@@]2(c2cc(OCc4ccccc4F)ccc2F)C3)c1 [Compound 139]
7.63 | 7.76 |  |  | COc1ncc(/C=C/c2ccc(F)cc2)c2c1C[C@]1(c3ccc(F)cc3F)N=C(N)SC[C@@H]1C2 [Compound 48]
5.17 | 5.09 |  |  | COc1ncc(-c2c(C)noc2C)c2c1C[C@]1(c3cc(OCCC4CCCCC4)ccc3F)N=C(N)SC[C@@H]1C2 [Compound 149]
5.52 | 6.89 |  |  | COc1cccc(COc2ccc(F)c([C@]34Cc5c(OC)ncc(-c6c(C)noc6C)c5C[C@H]3CSC(N)=N4)c2)c1 [Compound 145]
5.19 | 6 |  |  | COc1ncc(-c2c(C)noc2C)c2c1C[C@]1(c3cc(OCCOC4CCCCC4)ccc3F)N=C(N)SC[C@@H]1C2 [Compound 148]
7.96 | 8.28 |  |  | COc1ncc(-c2ccccc2F)c2c1C[C@]1(c3ccc(F)cc3F)N=C(N)SC[C@@H]1C2 [Compound 50]
6.64 | 7.7 |  |  | COc1ncc(-c2c(C)noc2C)c2c1C[C@]1(c3cc(OCc4cccc(C#N)c4)ccc3F)N=C(N)SC[C@@H]1C2 [Compound 147]
7.67 | 8.6 |  |  | COc1ncc(-c2csc3ccccc23)c2c1C[C@]1(c3ccc(F)cc3F)N=C(N)SC[C@@H]1C2 [Compound 133]
6.43 | 7.42 |  |  | COc1ncc(-c2ccccc2C)c2c1C[C@]1(c3cc(OCCc4c(C)noc4C)ccc3F)N=C(N)SC[C@@H]1C2 [Compound 144]
6.19 | 7.01 |  |  | COc1ncc(-c2cccc3c2OCCC3)c2c1C[C@]1(c3ccc(F)cc3F)N=C(N)SC[C@@H]1C2 [Compound 128]
 |  | 32.4 | 61.7 | COc1ncc(-c2ccccc2)c2c1C[C@]1(c3cc(OCc4ccccc4)ccc3F)N=C(N)SC[C@@H]1C2 [Compound 138]
4.78 | 6.43 |  |  | COc1ccc(F)cc1-c1cnc(OC)c2c1C[C@H]1CSC(N)=N[C@@]1(c1cc(OCC3CCOCC3)ccc1F)C2 [Compound 143]
5.3 | 6.12 |  |  | COc1ncc(-c2c(C)noc2C)c2c1C[C@]1(c3cc(OCCC4CCCC4)ccc3F)N=C(N)SC[C@@H]1C2 [Compound 150]
6.12 | 7.77 |  |  | COc1ncc(-c2c(C)noc2C)c2c1C[C@]1(c3cc(OCC4CCC4)ccc3F)N=C(N)SC[C@@H]1C2 [Compound 155]
6.36 | 6.32 |  |  | COc1ncc(-c2ccccc2F)c2c1C[C@]1(c3cc(OCCC#N)ccc3F)N=C(N)SC[C@@H]1C2 [Compound 156]
7.15 | 7.68 |  |  | COc1ncc(-c2ccc(Cl)c(C)c2)c2c1C[C@]1(c3ccc(F)cc3F)N=C(N)SC[C@@H]1C2 [Compound 59]
7.28 | 8.4 |  |  | COc1ncc(-c2ccccc2C)c2c1C[C@]1(c3cc(OCC4CCC4)ccc3F)N=C(N)SC[C@@H]1C2 [Compound 142]
7.03 | 7.4 |  |  | COc1ncc(-c2coc3ccccc23)c2c1C[C@]1(c3ccc(F)cc3F)N=C(N)SC[C@@H]1C2 [Compound 130]
6.99 | 7.77 |  |  | COc1ncc(-c2ccc(F)cc2C)c2c1C[C@]1(c3ccc(F)cc3F)N=C(N)SC[C@@H]1C2 [Compound 58]
